Test results from US20050004068A1, “Modulation of tor” (priority 2001, published 2005).
Where “and” joins values, the source holds several entries; their conditions need not be identical. Equal values may be shown once. Entries after “also recorded” stand apart in the source; their conditions may differ. Read-outs that look alike come from different tables or passages of the source.

Key:
[1] = system: S6K1 (T389 phosphorylation / activation; reporter for mTOR function); experiment: Insulin-induced S6K1 activation and T389 phosphorylation in HEK293 cells (reporter for mTOR function); assay type: cell-based, human; details: HEK293, 200 nM insulin, 100 mM 2-deoxyglucose or 20 mM rotenone, 30 min
Experimental: Because mTOR is sensitive to amino acids and regulates ribosome biogenesis (Dennis et al., 1999; Gingras et al., 2001; Schmelzle and Hall, 2000), we tested whether its activity may be sensitive to metabolic inhibitors. We used, insulin-induced S6K1 activation and 4E-BP1 phosphorylation as reporters for mTOR function in the presence of glycolytic or mitochohdrial inhibitors to reduce ATP production.
Briefly, human embryonic kidney cells (HEK293) were seeded and maintained as previously described (Pullen et al., Science 279, 707 (1998)). Confluent cells were serum starved for 20 h and then extracted (controls) or treated with 200 nM insulin in the precence or absence of 100 mM 2-deoxyglucose or 20 mM rotenone for 30 min. Cell extraction, kinase assays and Western blot analysis (used to measure S6K1 levels and T389 phosphorylation) were performed as described (Pullen et al.,1998). Phosphospecific antibodies are commercially available (e.g., New England Biolabs).

[2] = system: HEK293 cells (intracellular ATP); experiment: Intracellular ATP levels in HEK293 cells, luciferase-based assay; assay type: cell-based, human; details: for ATP levels as a percentage of the insulin-stimulated control (100%): mock-transfected HEK293, insulin-stimulated, treated as in Example 1 (100 mM 2-deoxyglucose or 20 mM rotenone, 30 min); for ATP levels compared to insulin stimulated control (100%): Example 4
Experimental: Because mTOR is sensitive to glycolitic inhibitors, we wanted to determine whether mTOR is sensitive to alterations in intracellular ATP concentrations. ATP levels were measured from mock-transfected HEK293 cells (using empty vector) treated as in Example 1, using a luciferase-based assay. Retonone and 2-deoxyglucose treatments were carried out on insulin-stimulated cells.
To generate extracts for ATP assays, cells were washed twice with 10 ml ice cold PBS, drained thoroughly, scraped into 1 ml of buffer (100 mM Tris-HCl and 4 mM EDTA pH 7.75) and transferred into an Eppendorf tube before flash freezing in liquid nitrogen. The frozen cells were boiled for 3 min and then placed on ice for 5 min followed by centrifugation at 13,000 rpm for 5 min at 4° C. ATP levels in the extract were measured in a microtiter plate by a Luciferase-based assay (Roche, ATP Bioluminescence Assay Kit CLS II) using a Microlumat LB96P microtiter plate reader (EG&G Berthold). In an illustrative set of experiments and expressing results as a percentage of the insulin-stimulated control (100%), ATP levels increased slightly in insulin treated cells (94% in unstimulated cells), decreased in 2-deoxyglucose treated cells (40-49%) and rotenone-treated cells (75-83%).
(§1) Rapamycin resistance was conferred by fusing glutathione-S-transferase to the NH2-terminus of S6K1 and truncating the COOH-terminus, creating a construct termed GST-ΔC-S6K1 (Pullen et al.,1 998). For the construction of the GST-ΔC-S6K1 (also known as GST-ΔC104-S6K1) and D3E, K100Q-S6K1-GST plasmids, similar cloning strategies were used. S6K1-GST or GST-ΔC-S6K1 from transiently-transfected, serum-starved HEK293 cells were extracted directly or after insulin stimulation with or without the addition of 20 nM rapamycin or 100 nM wortmannin. Kinase activities, expression levels and T389 phosphorylation were carried out essentially as described above. Expression and activity of S6K1-GST or GST-ΔC-S6K1 were measured after insulin stimulation alone or with increasing amounts of 2-deoxyglucose (20, 40 and 100 mM) essentially as described above. Mock-transfected HEK293 cells were treated using the same conditions and extracted for ATP analysis

[3] = system: 4E-BP1 (S65 phosphorylation; mTOR-mediated site); assay type: cell-based, human
Experimental: Transfections were carried out essentially as described by Manteuffel et al., 1997, Mol Cell. Biol. 17, 5426 with the 4EBP-1 construct described therein. The expression and phosphorylation of transiently-transfected HA-4E-BP1 was measured using a polyclonal anti-HA antibody and phosphospecific antibody against S65, respectively, essentially as described above (Pullen et al., 1998). The anti-HA antibody was obtained from a commercial source (Santa Cruz Biotechnology, Inc). The mTOR-mediated phosphorylation site in 4E-BP1 is S65.

GST-ΔC-S6K1 = experiment: Insulin-induced activation of GST-ΔC-S6K1 (rapamycin-resistant allele) in transfected HEK293 cells; assay type: cell-based, human; details: 20 nM rapamycin, 100 nM wortmannin, or 2-deoxyglucose 20, 40 and 100 mM
From the text: as §1

[4] = system: Mitogen-Activated Protein Kinase (MAPK); experiment: TPA-induced HA-MAPK activation (MBP phosphorylation); assay type: cell-based, human; details: 100 nM TPA, 100 mM 2-deoxyglucose, 30 min
Experimental: (§2) Transiently-transfected, HA-tagged PKB activation was measured in vitro using histone 2B (H2B) as substrate (Franke et al., 1995, Cell 81, 727) after immunoprecipitation from serum-starved cells extracted directly or after insulin stimulation with or without the addition of 100 mM 2-deoxyglucose, 20 nM rapamycin or 100 nM wortmannin. Rapamycin and wortmannin were added to serum-starved cells 30 min prior to insulin-stimulation. HA-PKB expression and S473 phosphorylation were measured essentially as described above. HA-MAPK kinase activity toward using myelin basic protein (MBP) was measured from serum-starved cells extracted directly or after 100 nM TPA stimulation in the presence or absence of 20 nM rapamycin or 100 mM 2-deoxyglucose for 30 min (N. Pullen et al., 1998).

mTOR (HA-mTORwt) [5] = biological target: T1, mTOR (HA-mTORwt) (Homo sapiens, UniProt P42345); experiment: In vitro T389 kinase activity of HA-mTORwt immunoprecipitated from treated HEK293 cells; assay type: cell-based; details: cells treated with 100 mM 2-deoxyglucose; assay with 1 mM ATP, 30 min at 30° C.
T1 construct: expressed in transfected cells; host or cells: HEK293 (anti-HA immunoprecipitate)
Experimental: (§3) Briefly, transiently transfected, hemaglutinin-tagged (HA) wild-type mTOR (HA-mTORwt) from HEK293 cells were serum starved for 16 hours before insulin stimulation. The cells were then treated with (or controls without) 100 mM 2-deoxyglucose or subjected to amino acid starvation as described above. Cell extracts were prepared for immunoprecipitations with a monoclonal anti-HA antibody. The immunocomplex was washed once with 1 M NaCl in assay buffer (30 mM MOPS (pH7.5), 5 mM NaF, 20 mM β-glycerol phosphate, 1 mM dithioerythritol, 0.1% Triton X-100 and 10% glycerol) and twice with assay buffer alone. […] Quantitation for Km measurements was carried out using scanning densitometry and ImageQuant software (Molecular Dynamics).

aminoacylated tRNA = experiment: tRNA aminoacylation in HEK293 cells (acid/urea gel, Northern blot); assay type: cell-based, human; details: HEK293, insulin stimulation with 2-deoxyglucose
Experimental: Briefly, total RNA was isolated from serum-starved HEK293 cells directly or after insulin stimulation with or without 2-deoxyglucose or amino acid starvation. As a control marker, tRNA was […] by mild alkaline hydrolysis in 0.1 M Tris-HCl (pH 8.0) at 75° C. for 5 min. After resolution on an acid/urea gel (Enriquez et al., in Methods Enzymol., Acad. Press, San Diego, vol. 264, pp. 183.), tRNA was visualized with ethidium bromide staining. Expression levels and phosphorylation state of endogenous S6K1 and 4E-BP1 were also measured from serum-starved cells, stimulated with insulin in the presence or absence of amino acids in the media essentially as described in Example 1.
To further test this finding, selected tRNAs were examined by Northern blot analysis of the tRNA resolved by acid/urea gel electrophoresis as described above. The individual tRNA species were probed after electrotransfer to nylon membrane, with radiolabelled oligonucleotides specific for tRNALeu and tRNAHis, namely: tRNALeu 5′-GCGCCTTAGACCGCTCGGCCACG-3′ (SEQ ID NO:1); tRNAHis 5′-GGTGCCGTGACTCGGATTCGAACCG-3′ (SEQ ID NO:2); and tRNAThr 5′-GCG AGA AAT GM CTC GCG-3′ (SEQ ID NO:3).

S6K1-GST = experiment: Insulin-induced activation of S6K1-GST (rapamycin sensitive) in transfected HEK293 cells; assay type: cell-based, human; details: 20 nM rapamycin, 100 nM wortmannin, or 2-deoxyglucose 20, 40 and 100 mM
From the text: as §1

[6] = system: HEK293 cells (amino acid levels); experiment: Levels of individual amino acids in extracts of insulin-stimulated HEK293 cells; assay type: cell-based, human; details: 100 mM 2-deoxyglucose
Experimental: Levels of individual amino acids were measured in extracts prepared from insulin-stimulated HEK293 cells in the presence or absence of amino acids or with 100 mM 2-deoxyglucose treatment and expressed as a percentage of the insulin-stimulated control in the presence of amino acids. Briefly, confluent cultures of HEK293 cells were treated as described above, washed with PBS and drained thoroughly. The cells were then scraped into […] water and sonicated with four 10 sec pulses. Cell debris was removed by centrifugation and sulfosalicylic acid was added to the supernatant to a final concentration of 2%. The samples were then placed on ice for 30 min followed by centrifugation to remove precipitated proteins. The extracts were then analyzed for amino acid content with a Biochrom 20 plus amino acid analyzer (Amersham-Pharmacia Biotech).

Protein Kinase B (PKB) = experiment: Insulin-induced HA-PKB activation (S473 phosphorylation, in vitro H2B phosphorylation); assay type: cell-based, human; details: 100 mM 2-deoxyglucose, 20 nM rapamycin or 100 nM wortmannin
Experimental: as §2

most protein kinases = details: read-out: Km for ATP of most cellular kinases; cited from earlier work
mTOR (HA-mTORwt) [7] = biological target: T1, mTOR (HA-mTORwt); experiment: mTOR in vitro kinase activity at varying ATP concentrations (apparent Km for ATP); assay type: biochemical; details: S6K1 T389 phosphorylation, ATP 0.2-3.0 mM
Experimental: as §3
Next, we measured mTOR activity in vitro at ATP concentrations that approached physiological levels of 1-5 mM In mammalian cells (Gribble et al., 2000, J.Biol.Chem. 275, 30046).

[8] = insulin stimulated HEK293 transfected with HA-4E-BP1, Western blot
[9] = summary: S6K1 T389 and 4E-BP1 S65 in insulin-stimulated HEK293

C=C(C)[C@H]1Cc2c(ccc3c2O[C@@H]2COc4cc(OC)c(OC)cc4[C@@H]2C3=O)O1 [rotenone]
inhibition of insulin-induced S6K1 T389 phosphorylation and S6K1 activation (S6 phosphorylation) [1]: inhibitory effect
ATP levels as a percentage of the insulin-stimulated control (100%) [2]: 75-83%
inhibition of 4E-BP1 S65 phosphorylation [3, 8]: inhibitory effect
inhibition of phosphorylation of mTOR targets (summary of Example 1) [3, 9]: able to inhibit phosphorylation of mTOR targets

O=CC[C@@H](O)[C@H](O)[C@H](O)CO [2-deoxyglucose]
insulin-induced phosphorylation/activation of GST-ΔC-S6K1 (GST-ΔC-S6K1): unaffected
TPA-induced MAPK activation, as judged by MBP phosphorylation [4]: no discernable effect
effect on kinase activity of mTOR in vitro towards T389 of S6K1 (mTOR (HA-mTORwt) [5]): no effect
inhibition of insulin-induced S6K1 T389 phosphorylation and S6K1 activation (S6 phosphorylation) [1]: reducing phosphorylation/activation to background levels; also recorded: blocked insulin-induced activation of S6K1
effect on total amounts of aminoacylated tRNA (aminoacylated tRNA): Neither insulin stimulation nor 2-deoxyglucose treatment had an effect
insulin-induced phosphorylation/activation of S6K1-GST (S6K1-GST): reduced insulin-induced activation of S6K1-GST
ATP levels compared to insulin stimulated control (100%) ([2]; 20 nM 2-deoxyglucose (so in the source)): 57-59%
ATP levels compared to insulin stimulated control (100%) ([2]; 40 nM 2-deoxyglucose (so in the source)): 43-48%
ATP levels compared to insulin stimulated control (100%) ([2]; 100 nM 2-deoxyglucose (so in the source)): 32-36%
ATP levels as a percentage of the insulin-stimulated control (100%) [2]: 40-49%
inhibition of 4E-BP1 S65 phosphorylation [3, 8]: inhibit 4EBP-1 S65 phosphorylation to background levels
inhibition of phosphorylation of mTOR targets (summary of Example 1) [3, 9]: able to reduce phosphorylation of mTOR targets to background levels
amino acid levels (Ala, Glu, Leu, Ile and Val) as a percentage of the insulin-stimulated control in the presence of amino acids [6]: 100-120%
insulin-induced activation of PKB, as judged by S473 phosphorylation and in vitro phosphorylation of H2B (Protein Kinase B (PKB)): did not inhibit

O=C(O)CI [iodoacetic acid]
inhibition of 4E-BP1 S65 phosphorylation [3]: more efficient than dinitrophenol
inhibition of phosphorylation of mTOR targets (summary of Example 1) [3]: able to reduce phosphorylation of mTOR targets to background levels

CO[C@H]1C[C@@H]2CC[C@@H](C)[C@@](O)(O2)C(=O)C(=O)N2CCCC[C@H]2C(=O)O[C@H]([C@H](C)C[C@@H]2CC[C@@H](O)[C@H](OC)C2)CC(=O)[C@H](C)/C=C(\C)[C@@H](O)[C@@H](OC)C(=O)[C@H](C)C[C@H](C)/C=C/C=C/C=C/1C [rapamycin]
insulin-induced activation of PKB, as judged by S473 phosphorylation and in vitro phosphorylation of H2B (Protein Kinase B (PKB)): did not inhibit

Nc1ncnc2c1ncn2[C@@H]1O[C@H](COP(=O)(O)OP(=O)(O)OP(=O)(O)O)[C@@H](O)[C@H]1O [ATP]
Km (most protein kinases): 10 to 20 µM
Km (mTOR (HA-mTORwt) [7]): ≥ 1000 µM and 1000 µM
